The values below come from PubChem BioAssay (NCI).

Test systems include NCI-H522 lung; HT29 colon; SF-268 CNS; ACHN renal; CAKI-1 renal; NCI-H226 lung; BT-549 breast; MDA-N; PC-3 prostate; KM12 colon; MCF7 breast; M14 melanoma; SNB-75 CNS; OVCAR-8 ovarian.
Experiment in all cases: NCI anticancer screen, dose series, 48 h

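Compound exposure: 48 hours, 5 concentrations, 96-well plates. TGI denotes the concentration required for complete inhibition of growth.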

With `CC1(C)OCC(COC(=O)C=[N+]=[N-])O1` (stereo not drawn), the TGI in the assay with NCI-H522 lung, with HT29 colon, with SF-268 CNS, with ACHN renal, in the assay on CAKI-1 renal and with NCI-H226 lung was greater than 100 µM in each case. For the same molecule, the TGI with BT-549 breast, in the assay on MDA-N, in the assay with PC-3 prostate, in the assay with KM12 colon and in the assay with MCF7 breast was greater than 100 µM each time.
On to `Cc1nc2c(sc(=S)n2-c2ccccc2)c2nc3ncccc3n12`, for which the TGI with NCI-H522 lung is greater than 100 µM; in the assay on HT29 colon, greater than 100 µM; with SF-268 CNS it was greater than 100 µM; in the assay with M14 melanoma, greater than 100 µM; in the assay on SNB-75 CNS, 64.5 µM; in the assay on ACHN renal, greater than 100 µM. Moreover, the TGI in the assay on CAKI-1 renal, in the assay on BT-549 breast, with MDA-N, with OVCAR-8 ovarian, in the assay on PC-3 prostate and with KM12 colon was greater than 100 µM each time. The TGI with MCF7 breast was greater than 100 µM.
Turning to `NC(C(F)(F)F)(C(F)(F)F)P(=O)(Cc1ccccc1)Cc1ccccc1`, the TGI with HT29 colon, with SF-268 CNS, with M14 melanoma, in the assay with SNB-75 CNS, in the assay on ACHN renal and with CAKI-1 renal was greater than 100 µM each time. The TGI in the assay on BT-549 breast, with MDA-N, with OVCAR-8 ovarian, in the assay with PC-3 prostate, in the assay with KM12 colon and in the assay on MCF7 breast was greater than 100 µM each time.
Consider `COc1cc2c(cc1OC)C1=Cc3cc(OC)c(OC)cc3C(C)N1C=C2` (stereo not drawn), for which the TGI with HT29 colon, in the assay with SF-268 CNS, with M14 melanoma, with SNB-75 CNS, with ACHN renal and with NCI-H226 lung was greater than 100 µM in each case. Moreover, the TGI with BT-549 breast, in the assay with MDA-N, in the assay on OVCAR-8 ovarian, with PC-3 prostate, with KM12 colon and in the assay with MCF7 breast was greater than 100 µM in each case.
As to `OCCCCCNc1c2ccccc2nc2ccccc12`, the TGI in the assay on NCI-H522 lung came to 10.2 µM; in the assay with HT29 colon it was 20.7 µM; with SF-268 CNS it was 11.4 µM; in the assay on M14 melanoma, 6.91 µM; in the assay on SNB-75 CNS, 12.5 µM; with ACHN renal, 1.42 µM. The TGI amounted to 8.31 µM in the assay with CAKI-1 renal; 25.3 µM in the assay with BT-549 breast; 7.42 µM with MDA-N; 8.72 µM in the assay on OVCAR-8 ovarian; 7.2 µM in the assay with PC-3 prostate; 14.3 µM with KM12 colon. In addition, in the assay with MCF7 breast, the TGI is 6.11 µM.
As to `COc1ccccc1Nc1nc(N)nc(N)c1N=O`, the TGI with NCI-H522 lung, with HT29 colon, in the assay with SF-268 CNS, in the assay with M14 melanoma, in the assay with SNB-75 CNS and with ACHN renal was greater than 100 µM each time. Moreover, the TGI with NCI-H226 lung, in the assay with BT-549 breast, in the assay with MDA-N, in the assay on OVCAR-8 ovarian, in the assay with PC-3 prostate and in the assay with KM12 colon was greater than 100 µM in each case. The TGI with MCF7 breast is greater than 100 µM.
As for `CCCCN1C(=O)CC2[C@@H]3CCc4cc(OC(C)=O)ccc4C3CC[C@]2(C)C1=O` (stereo partly drawn), the TGI in the assay on HT29 colon, with SF-268 CNS, in the assay with M14 melanoma, in the assay with ACHN renal, in the assay on CAKI-1 renal and with NCI-H226 lung was greater than 10 µM throughout. Further, the TGI with BT-549 breast, in the assay with MDA-N, with OVCAR-8 ovarian, in the assay with PC-3 prostate, with KM12 colon and in the assay with MCF7 breast was greater than 10 µM in each case.
Regarding `O=C1CCC[C@@H]2NC[C@@H](c3ccc4c(c3)OCO4)[C@H]12`, the TGI in the assay with NCI-H522 lung, with HT29 colon, in the assay with SF-268 CNS, with M14 melanoma, in the assay with SNB-75 CNS and in the assay on ACHN renal was greater than 25 µM in each case. Further, the TGI with CAKI-1 renal, with NCI-H226 lung, in the assay with MDA-N, in the assay with OVCAR-8 ovarian, with PC-3 prostate and with KM12 colon was greater than 25 µM in each case. The same molecule came in with a TGI in the assay on MCF7 breast greater than 25 µM.
As for `CCOC(=O)CNC(=O)C(CSCc1ccc(Br)cc1)NC(=O)CCC(N)C(=O)OCC` (stereo not drawn), the TGI with NCI-H522 lung, in the assay with HT29 colon, in the assay with SF-268 CNS, in the assay with M14 melanoma, with SNB-75 CNS and with ACHN renal was greater than 50 µM throughout. Further, the TGI in the assay with CAKI-1 renal, with BT-549 breast, in the assay with MDA-N, with OVCAR-8 ovarian, in the assay on PC-3 prostate and in the assay on KM12 colon was greater than 50 µM each time. For the same molecule, the TGI in the assay on MCF7 breast was greater than 50 µM.
Consider `COC(=O)C1(C(=O)OC)CC2=C(S(=O)(=O)c3ccccc3)C[C@H](S(=O)(=O)c3ccccc3)[C@H]2C1`, for which the TGI in the assay with NCI-H522 lung is 92.7 µM; with HT29 colon, greater than 100 µM; in the assay with SF-268 CNS it was greater than 100 µM; with M14 melanoma it was greater than 100 µM; in the assay on SNB-75 CNS it was 93.6 µM; with ACHN renal, greater than 100 µM. The TGI in the assay with CAKI-1 renal, with NCI-H226 lung, in the assay with BT-549 breast, with MDA-N, in the assay with OVCAR-8 ovarian and in the assay with PC-3 prostate was greater than 100 µM each time. The molecule also had a TGI in the assay on KM12 colon greater than 100 µM.
With `Cc1nnc2n1N=C(c1cc(F)c(Cl)cc1Cl)/C(=C/c1ccc(Cl)cc1)S2`, the TGI in the assay on NCI-H522 lung was greater than 100 µM; with HT29 colon, 34.5 µM; in the assay with SF-268 CNS, greater than 100 µM; in the assay on M14 melanoma it was 43 µM; in the assay with ACHN renal, 41.7 µM; in the assay with CAKI-1 renal, 41.4 µM. The TGI in the assay with NCI-H226 lung was 63.4 µM; in the assay with BT-549 breast, 49 µM; in the assay with MDA-N it was 35.4 µM; in the assay with OVCAR-8 ovarian it was greater than 100 µM; in the assay on PC-3 prostate, 80.6 µM; in the assay on KM12 colon, 25.4 µM. Moreover, in the assay on MCF7 breast, the TGI is 50.8 µM.
